Data from article PMC5847527, “Identification of a novel 2-oxindole fluorinated derivative as in vivo antitumor agent for prostate cancer acting via AMPK activation” (Scientific Reports, 2018).

Columns and labels:
LNCaP cells = assay: Cell viability by MTT assay, LNCaP; format: cell-based, human
Method: (§1) Figure 3 Comparison of the effect of 2-oxindole fluorinated derivatives on the proliferation of human prostate cancer cells. (A) Normal (PTN2 and RWPE-1) and cancer (PC3,DU145 and LNCaP) prostate cells were treated with different doses of the compounds for 24 hours and cell viability was monitored by MTT assay. […] (C) PC-3, DU145 and LNCaP cells were treated with 25 µM of compound 8c for different times. Values were normalized with the control and represent the mean ± SD of at least three independent experiments. *p < 0.05 and **p < 0.01 compared to control by the Student’s - test.
(§2) Human prostate cancer epithelial PC-3, DU145 and LNCaP and human prostate normal RWPE-1 cells were purchased from American Type Culture Collection (ATCC CRL-1435 CRL-1740 and CRL 11609 respectively) (Rockville, MD, USA). The human prostate normal PNT2 cell line was purchased to ECACC (European Collection of Cell cultures, Salisbury, SP4 0JG, UK). Cells were routinely grown in RPMI 1640 medium supplemented with 100 IU/ml penicillin G sodium, 100 µg/ml streptomycin sulfate, 0.25 µg/ml amphotericin B (Invitrogen, Paisley, UK) and 10% fetal calf serum. Cells were used at passages between 10–20. For treatment experiments, cells were plated and grown over night, the medium was then replaced with serum-free RPMI 1640 for 24 hours and then incubated with different doses of the compounds for the indicated times.
Cell viability was determined by 3-(4,5-dimethylthiazol-2-yl)-2,5-diphenyltetrazolium bromide (MTT) (Sigma-Aldrich) method. […] The optical density in each well was evaluated by measurement of absorbance at 490 and 650 nm using a microplate reader (ELX 800 Bio-Tek Intruments, INC). IC50 values were calculated using GraphPad Prism vs 6.0 (GraphPad Software, Inc, La Jolla, CA, USA). Cell viability was also determined by counting viable and dead cells by Trypan blue staining. Trypan blue positive and negative cells were counted using a Countess^TM automated cell counter (Invitrogen, Carlsbad, CA, USA). Results were expressed in relation to total number of cells counted.

[1] = test system: PTN2, RWPE-1, PC3, DU145 and LNCaP prostate cells; assay: Cell viability by MTT assay, statements for the five cell lines together; format: cell-based, human
Method: We then study the effect of the compounds on the proliferative capacity of PC-3, DU145 and LNCaP prostate cells. We also used the prostate cell lines PTN2 and RWPE-1 which are derived from a histologically normal adult and therefore are considered as normal prostate cells, for comparison. All the compounds were tested at concentrations ranging from 1 to 100 μM.
(A) Normal (PTN2 and RWPE-1) and cancer (PC3,DU145 and LNCaP) prostate cells were treated with different doses of the compounds for 24 hours and cell viability was monitored by MTT assay. […] Values were normalized with the control and represent the mean ± SD of at least three independent experiments. *p < 0.05 and **p < 0.01 compared to control by the Student’s - test.
Human prostate cancer epithelial PC-3, DU145 and LNCaP and human prostate normal RWPE-1 cells were purchased from American Type Culture Collection (ATCC CRL-1435 CRL-1740 and CRL 11609 respectively) (Rockville, MD, USA). The human prostate normal PNT2 cell line was purchased to ECACC (European Collection of Cell cultures, Salisbury, SP4 0JG, UK). Cells were routinely grown in RPMI 1640 medium supplemented with 100 IU/ml penicillin G sodium, 100 µg/ml streptomycin sulfate, 0.25 µg/ml amphotericin B (Invitrogen, Paisley, UK) and 10% fetal calf serum. Cells were used at passages between 10–20. […]

AMPKα1 1–550 fragment = assay: Activity on isolated AMPKα1 1–550 fragment; format: biochemical, human; details: fragment containing the catalytic domain
From the text: We also assayed the effect of compound 8c on a fragment of the α1 isoform (aa 1–550) that contains the catalytic domain.
(B) Activity of compound 8c on isolated AMPKα1 1–550 fragment. […] Data are the mean ± S.D. of four experiments. **p < 0.01 and ***p < 0.001 compared by the Student’s t-test.

[2] = test system: cleaved Caspase 3 (17 kDa fragment); assay: Cleaved Caspase 3 level by Western blot in prostate cells; format: cell-based, human
Method: (§3) Figure 4 Cell Cycle analysis in 8c-treated prostate cancer cells. (A) PC-3 and LNCaP cells were treated with compound 8c for 24 hours and cell cycle analysis was analyzed by flow cytometry using Propidium Iodide (PI). Percentage of cells in subG0, G1, S, and G2/M phases is indicated in the histogram. (B) Levels of Cyclin D1, p-p53, p53, p21 and cleaved Caspase 3 (17 kDa fragment) were determined by Western blot. Upper panel, representative Western blot of two different experiments. β-tubulin (β-Tub) serves as a loading control. […]
(§4) Cyclin D1 activity is modulated by several inhibitors such as p21 which negatively regulate cell cycle progression by interacting with cyclin dependent kinases (cdks). […] To further study the role of compound 8c in cell cycle, we determined the expression of p21, p53 and the levels of cleaved caspase 3 in the prostate cells. P53 was only determined in LNCaP cells since PC-3 cells are p53-negative[40].
(§5) Cells were lysed in Lysis buffer (50 mM Tris pH 7.4, 0.8 M NaCl, 5 mM MgCl2, 0.1% Triton X-100) containing Protease Inhibitor and Phosphatase inhibitor Cocktails (Roche, Basel, Switzerland). Protein concentrations were measured by BioRad™ protein assay kit (Richmond, CA, USA). […] Films were analyzed by densitometry. […]

p53 = p53 and p-p53 level by Western blot in LNCaP cells; format: cell-based, human
Method: as §3, §4, §5

PC-3 cells = assay: Cell viability by MTT assay, PC-3; format: cell-based, human
Method: as §1, §2
Cell viability was determined by 3-(4,5-dimethylthiazol-2-yl)-2,5-diphenyltetrazolium bromide (MTT) (Sigma-Aldrich) method. In brief, a total of 5000 cells/well were seeded into 12-well plate in a final volume of 1 mL. After treatments, 20 µl MTT solution (5 mg/ml in PBS) was added to the medium and cells were incubated at 37 °C for 4 h. Then, the supernatant was discarded and isopropanol was added to dissolve the formazan crystals. Treatments were carried out in triplicate. The optical density in each well was evaluated by measurement of absorbance at 490 and 650 nm using a microplate reader (ELX 800 Bio-Tek Intruments, INC). IC50 values were calculated using GraphPad Prism vs 6.0 (GraphPad Software, Inc, La Jolla, CA, USA). Cell viability was also determined by counting viable and dead cells by Trypan blue staining. Trypan blue positive and negative cells were counted using a Countess^TM automated cell counter (Invitrogen, Carlsbad, CA, USA). Results were expressed in relation to total number of cells counted.

Structure (SMILES): O=C1Nc2ccccc2C1(F)Cc1ccc(-c2ccccc2)o1 (stereo not drawn) [Compound 8c, 3-fluoro-3-((5-phenylfuran-2-yl)methyl)indolin-2-one]
- inhibitory efficacy on cells viability at 50 μM (LNCaP cells; 50 μM): 85%
- IC50 (LNCaP cells; Homo sapiens, MTT, 24 hours): 30 µM
- inhibition of cell viability at 100 µM ([1]; 100 µM): almost totally inhibited cell viability
- inhibition of cell proliferation ([1]; 1–100 µM, dose-dependent, 24 hours): effectively inhibited cell proliferation
- AMPK activity of α1 isoform fragment (aa 1–550) (AMPKα1 1–550 fragment): no change in AMPK activity
- cleaved caspase 3 (17 kDa fragment) [2]: increase in cleaved caspase 3
- total and phosphorylated p53 (p53): increase in the total and phosphorylated forms of p53
- IC50 (PC-3 cells; Homo sapiens, PC-3, MTT, 24 hours): 18 µM
- inhibitory efficacy on cells viability at 50 μM (PC-3 cells; PC-3, 50 μM): 84%
